In patent US20040133938A1, “Use of lipoic acid in plant culture media” (priority 2002, published 2004):

System: A3244 soybean seed axis explants
Assay: Soybean Agrobacterium transformation, lipoic acid in co-culture media
Assay type: cell-based
Experimental: Dry A3244 soybean seeds were germinated by soaking in sterile distilled water (SDW) for three minutes, drained and allowed to slowly imbibe for 2 hours at which time Bean Germination Media (BGM) was added. At approximately 12 hours, seed axis explants were isolated by removing seed coats and cotyledons. Inoculation occurred 14 hours after the addition of SDW.
Explants were placed into sterile Plantcons™ with 20 mL of pMON15737/ABI (FIG. 3) and resuspended to an optical density A660 of approximately 0.3 in 1/10 Gamborg's B5 media (Gamborg et al., Exp. Cell Res., 50:151-158, 1968) containing 3% glucose, 1.68 mg/L BAP, 3.9 g/L MES, […] acetosyringone, 1 mM galactronic acid, and 0.25 mg/L GA3. Each Plantcon™ was sonicated for 20 seconds in a L&R Quantrex S140 sonicator that contained SDW+0.1% Triton X100 in the bath. Plantcons™ were held in place at approximately 2.5 cm below the surface of the bath liquid. Following sonication, explants were inoculated for an additional hour while shaking gently on an orbital shaker at ˜90 RPM. After inoculation, the Agrobacterium was removed. […] Co-culture media consisted of 1/10 Gamborg's B5 media containing 5% glucose, 1.68 mg/L BAP, 3.9 g/L, […] acetosyringone, 1 mM galactronic acid and 0.25 mg/L GA3. Explants were incubated at 23° C. in the dark for 3 days.
Lipoic acid was dissolved in either ethanol or potassium hydroxide to make 100 mg/mL stock. […]
Following co-culture, explants were transferred to solid Woody Plant Media (WPM) (McCown & Lloyd, Proc. International Plant Propagation Soc., 30:421, 1981) containing 2% sucrose, 200 mg/L carbenicillin, 100 mg/L Timetin (ticarcillin+clavulanic acid), +/−100 mg/L cefotaxime, 60 mg/L Benomyl, and 75 μM glyphosate. All explants were placed at 28° C., 16-hour light/8-hour dark photoperiod. A second transfer to the same media was made after two weeks.
Shoots were cut 5-8 weeks post-inoculation and rooted on Bean Rooting Media (BRM) containing 25 μM glyphosate and 100 mg/L Timetin.

[1] = 5 uM LA, KOH, 248 explants, Table 12
[2] = 5 uM LA, 244 explants, Table 12
[3] = 10 uM LA, KOH, 240 explants, Table 12
[4] = 10 uM LA, 247 explants, Table 12
[5] = 50 uM LA, KOH, 246 explants, Table 12
[6] = 50 uM LA, 242 explants, Table 12
[7] = 100 uM LA, KOH, 246 explants, Table 12
[8] = 100 uM LA, 396 explants, Table 12
[9] = 250 uM LA, KOH, 505 explants, Table 11
[10] = 250 uM LA, 246 explants, Table 12
[11] = 250 uM LA, 486 explants, Table 11
[12] = 500 uM LA*, 171 explants, Table 12
[13] = 500 uM LA, KOH, 462 explants, Table 11
[14] = 500 uM LA, 531 explants, Table 11
[15] = 750 uM LA, KOH, 454 explants, Table 11
[16] = 750 uM LA, 535 explants, Table 11
[17] = 1000 uM LA, KOH, 471 explants, Table 11
[18] = 1000 uM LA, 530 explants, Table 11
[19] = 1500 uM LA, KOH, 498 explants, Table 11
[20] = 1500 uM LA, 538 explants, Table 11

Compound: O=C(O)CCCCC1CCSS1 (centres unmarked) [lipoic acid, 1,2-dithiolane-3-pentanoic acid]
- Shooting Frequency [1]: 5%
- Total Rooted Plants [1]: 2
- Total Shoots [1]: 13
- Transformation Efficiency [1]: 0.8%
- Shooting Frequency [2]: 7%
- Total Rooted Plants [2]: 3
- Total Shoots [2]: 18
- Transformation Efficiency [2]: 1.2%
- Shooting Frequency [3]: 5%
- Total Rooted Plants [3]: 0
- Total Shoots [3]: 13
- Transformation Efficiency [3]: 0.0%
- Shooting Frequency [4]: 6%
- Total Rooted Plants [4]: 0
- Total Shoots [4]: 14
- Transformation Efficiency [4]: 0.0%
- Shooting Frequency [5]: 7%
- Total Rooted Plants [5]: 1
- Total Shoots [5]: 17
- Transformation Efficiency [5]: 0.4%
- Shooting Frequency [6]: 9%
- Total Rooted Plants [6]: 1
- Total Shoots [6]: 22
- Transformation Efficiency [6]: 0.4%
- Shooting Frequency [7]: 7%
- Total Rooted Plants [7]: 2
- Total Shoots [7]: 18
- Transformation Efficiency [7]: 0.8%
- Shooting Frequency [8]: 10%
- Total Rooted Plants [8]: 3
- Total Shoots [8]: 39
- Transformation Efficiency [8]: 0.8%
- Rooted Plants [9]: 13
- Shooting Frequency [9]: 12%
- Total Shoots [9]: 63
- Transformation Efficiency [9]: 2.6%
- Shooting Frequency [10]: 13%
- Total Rooted Plants [10]: 9
- Total Shoots [10]: 32
- Transformation Efficiency [10]: 3.7%
- Rooted Plants [11]: 7
- Shooting Frequency [11]: 14%
- Total Shoots [11]: 69
- Transformation Efficiency [11]: 1.4%
- Shooting Frequency [12]: 11%
- Total Rooted Plants [12]: 5
- Total Shoots [12]: 19
- Transformation Efficiency [12]: 2.9%
- Rooted Plants [13]: 7
- Shooting Frequency [13]: 10%
- Total Shoots [13]: 44
- Transformation Efficiency [13]: 1.5%
- Rooted Plants [14]: 9
- Shooting Frequency [14]: 12%
- Total Shoots [14]: 64
- Transformation Efficiency [14]: 1.7%
- Rooted Plants [15]: 7
- Shooting Frequency [15]: 12%
- Total Shoots [15]: 56
- Transformation Efficiency [15]: 1.5%
- Rooted Plants [16]: 9
- Shooting Frequency [16]: 12%
- Total Shoots [16]: 62
- Transformation Efficiency [16]: 1.7%
- Rooted Plants [17]: 6
- Shooting Frequency [17]: 8%
- Total Shoots [17]: 40
- Transformation Efficiency [17]: 1.3%
- Rooted Plants [18]: 12
- Shooting Frequency [18]: 10%
- Total Shoots [18]: 52
- Transformation Efficiency [18]: 2.3%
- Rooted Plants [19]: 10
- Shooting Frequency [19]: 11%
- Total Shoots [19]: 57
- Transformation Efficiency [19]: 2.0%
- Rooted Plants [20]: 13
- Shooting Frequency [20]: 10%
- Total Shoots [20]: 53
- Transformation Efficiency [20]: 2.4%
- increase of transformation frequency (lipoic acid concentration of 250 μM): about ninefold
- effect on transformation efficiency, shoot and rooted plant production (lipoic acid concentrations of 250 μM to 1500 μM): increased transformation efficiency
- effectiveness in the soybean transformation protocol (low levels of lipoic acid (5 to 100 μM)): not particularly effective
